According to US7531676B2, “Lipids” (Celltech R & D Limited, priority 1999, dated 2009):
Where a name gives a salt, the structure may show the parent alone.

Experiments:
DNase I = assay: DNase treatment of lipid/DNA complexes, plasmid integrity by gel; settings: charge ratio of at least 2:1; DNase I 1 unit/1 μg DNA, 37° C., 10 minutes
Excerpt: (§1) One of the ultimate goals of current gene therapy research is to develop a delivery system which will remain stable and effective in vivo, since this would remove the need for expensive and time-consuming ex-vivo manipulations. Since intravenous administration offers the possibility of delivery to the largest number of tissue sites, survival of the gene delivery complex in the presence of serum could be an important feature of any effective technology. Many published studies have demonstated the susceptibility of gene delivery complexes to inactivation by serum even at levels as low as 10%. This effect is due, at least in part, to the destabilisation of complexes by a poorly understood mechanism, and this can lead to degradation of the DNA within the complex by serum-associated nucleases. We have therefore formed complexes between the lipids of the invention and plasmid DNA and subjected these to treatment with purified DNase and pronase as well as with 50% foetal calf serum. Integrity of the plasmid DNA was then measured.
(§2) Plasmid DNA (pEG/acZ) was prepared at a concentration of 120 μg/ml in water. […] Finally, all samples were analysed by electrophoresis on 0.8% agarose gels.

Plasmid DNA (pEG/acZ) = assay: Agarose gel electrophoresis of lipid/plasmid DNA complexes (DNA retardation/condensation); type: binding
Procedure: Plasmid DNA (pEG/acZ) was prepared at a concentration of 120 μg/ml in water. A lipid according to the invention [for example the hexamine H18 described in the Example above] was prepared in a range of concentrations such that charge ratios of lipid:DNA of 0.25:1, 1:1, 2:1, 4:1, 8:1 would be obtained (based on the assumption that DNA at 120 μg/ml is equivalent to 0.387 mM of negative charge, and the hexamine H18 for example at 10 mg/ml is equivalent to 36.23 mM of positive charge). An equal volume of DNA was added dropwise to a vortexing tube containing the lipid in water. For DNase treatment, DNase I (FPLCpure, Pharmacia) was added at a concentration of 1 unit/1 μg of DNA and tubes were incubated at 37° C. for 10 minutes. To inhibit further action of DNase, EGTA was added to a final concentration of 25 mM. For pronase treatment, protease XIV (Sigma) was added to samples to a final concentration of 150 μg/ml, and samples incubated for 30 min at 37° C. Complexes were disrupted in 0.5% SDS with incubation at 55° C. for 20 min. Serum treatment involved incubating the samples in the presence of 50% foetal calf serum (final concentration) for 30 min at 37° C. EGTA was added to a final concentration of 50 mM in an attempt to prevent subsequent action of serum-associated nucleases. Finally, all samples were analysed by electrophoresis on 0.8% agarose gels.

protease XIV (pronase) = assay: Pronase treatment of lipid/DNA complexes, plasmid integrity by gel; settings: protease XIV 150 μg/ml, 30 min at 37° C.
Excerpt: as §1, §2

[1] = system: Chinese Hamster Ovary (CHO) cells; assay: CHO transfection with lipid condensed DNA, beta-galactosidase reporter; type: cell-based; settings: for β-galactosidase in cell extract mUnits per mg protein: CHO cells, Lipid:DNA mass ratio 8:1, pEG/acZ plasmid; for β-galactosidase expression in the CHO cells (in words): lipid condensed DNA versus non-condensed DNA control (undetectable)
Procedure: Plasmid DNA (pEG/acZ) was prepared at concentrations of typically 60 or 120 μg/ml in water. Solutions of lipids according to the invention were prepared in water over a range of concentrations (typically 30 to 960 μg/ml). An equal volume of DNA was added dropwise to a tube containing a solution of the lipids whilst vortexing the tube.
Chinese Hamster Ovary (CHO) cells were seeded in to 24 well plates at 100,000 cells per well 24 h before experiment. Cells were washed once in Optimem™ medium prior to transfection. Wash medium was removed and replaced with 0.5 ml of Optimem™ to which the required amount of lipid condensed DNA was added (typically 1 to 5 μg DNA equivalent). Usually three replicate transfection wells were set up per condensed DNA sample tested. Cells were incubated for a further 34 h at 37° C., 5% CO2 before removal of the complex and additon of 1 ml of fresh medium (Iscoves™ medium: modified DMEM plus glutamate, asparagine, adenosine, guanosine, cytidine, uridine, thymidine and 10% dialysed foetal calf serum). Cells were cultured for a further 48-72 hours before harvesting and assay. Levels of Beta galactosidase reporter gene activity were determined using an enzyme assay system from Promega as follows. Cells were washed twice with I ml of phosphate buffered saline and solubilised in 200 ul of 1× cell lysis buffer. 50 ul of cell extract was incubated with the provided buffer and substrate o-nitrophenyl-β-D-galactopyranoside and the optical density measured spectrophoto-metrically. Levels of β-gal expression were quantitated by reference to the standard curve and related to the amount of protein in the extract (measured using the BCA assay kit from Pierce) to give a final value expressed as mU of β-gal per mg of protein.

| resistance of condensed DNA to treatment by DNase (DNase I) | resistance of lipid/DNA condensates to treatment by pronase (protease XIV (pronase)) | Structure (SMILES) | mobility of plasmid DNA through gel (Plasmid DNA (pEG/acZ); charge ratio of 2:1 (H18:DNA), 0.8% agarose gel) | visibility of plasmid DNA by ethidium bromide fluorescence (DNA fully condensed) (Plasmid DNA (pEG/acZ); charge ratios higher than 2:1) | β-galactosidase in cell extract mUnits per mg protein [1] [mUnits per mg protein] | β-galactosidase expression in the CHO cells (in words) [1] |
| --- | --- | --- | --- | --- | --- | --- |
| resistant | resistant | NCCCNCCCCNCC(CCCCCCNC(=O)CCCCCCCCCCCCCCCCCCCCCCCNC(=O)[C@H](O)[C@@H](O)[C@H](O)[C@H](O)CO)CNCCCCNCCCN (stereo in doubt) [Lipid H18, (trifluoroacetate) salt] | no DNA entered the gel | no longer visible | 40 ± 9 | significant β-galactosidase expression |
|  |  | NCCCCNCC(CCCCCCNC(=O)CCCCCCCCCCCCCCCCCCCCCCCNC(=O)[C@H](O)[C@H](O)[C@H](O)[C@H](O)CO)CNCCCCN (stereo in doubt) [Lipid H3, (trifluoroacetate) salt] |  |  | 11 ± 4 | significant β-galactosidase expression |
